# Source: US12194033B2, “Glycine receptor modulators and methods of use” (University of Pittsburgh—Of the Commonwealth System of …, priority 2017, dated 2025)
# Values joined by “and” are separate entries in the source; they are usually repeats but may differ in a detail not shown here. Equal values may be shown once.
# Experiments:
# CD1 mice = test: Hargreaves test under CFA-induced hyperalgesic conditions in CD1 mice; type: in vivo
# Method: Under CFA-induced hyperalgesic conditions, the maximum possible effect, % MPE=(response−baseline)/(cut-off time−baseline), was measured for the application of compound 1 alone (0.05 mg/kg, blue, n=12; 0.01 mg/kg, orange, n=4), morphine alone (0.1 mg/kg, green, n=8), and compound 1 with morphine at three different dosage combinations: 0.05 mg/kg compound 1 with 0.1 mg/kg morphine (light blue, n=6), 0.01 mg/kg compound 1 with 0.1 mg/kg morphine (pink, n=10), and 0.01 mg/kg compound 1 with 0.01 mg/kg morphine (red, n=4). […] Error bars designate the standard error of the mean.
# 0.05 mg/kg compound 1 was tested for tolerance in CFA-treated mice (red). Under CFA-induced hyperalgesic conditions (24 hours post-application of CFA), 0.05 mg/kg compound 1 was administered to CD1 mice and responses to the Hargreaves test were measured immediately after the initial injection (application time=0) and again after a repeated dose given 1.5 hours (FIG. 7A) or 24 hours (FIG. 7B) after the effects of the first dose wore off. The black circles represent the responses of naïve mice (i.e., no administration of compound 1 or CFA), and the red circles represent the responses of mice receiving compound 1 under CFA-induced hyperalgesic conditions. […] Error bars designate the standard error of the mean (n=4).
# Responses of CD1 mice to the Hargreaves test were assessed after application of 0.1 mg/kg of the indicated compounds (black) or vehicle (white) under CFA-induced hyperalgesic conditions as shown in FIGS. 8A-8H. The assessed compounds were compounds 1 (8A), 2 (8B), 3 (8C), 4 (8D), 5 (8E), 6 (8F), 7 (8G), and 8 (8H). […] Error bars designate the standard error of the mean (n≥4).
# Dose response curves from the Hargreaves test in mice with a CFA-inflamed left hind paw at 1.5 and 2 hr after intraperitoneal injection of compound 1. Percent Maximum Possible Effect (% MPE) was calculated from paw withdrawal latencies.
# Tolerance to compound 1 (MJPY1) and compound 3 (MJPY2) was measured by repeated dosing in the Hargreaves Test. […] Mice (n=6/group) received repeated i.p. injections of vehicle or 0.1 mg/kg compound 1 (MJPY1) or compound 3 (MJPY2) once a day for 5 days. CFA inflammation was induced on day 4, and PWL was measured 0.5 hr before and every 10 min after treatment on day 5. Data were binned to 30-min blocks (mean±SEM).
# CB1 = target: T1, CB1 (Homo sapiens, UniProt P21554); test: PRESTO-TANGO functional assay CB1; type: cell-based; settings: against positive controls, n=3
# T1 construct: expressed in transfected cells
# T1 sequence (P21554 whole entry): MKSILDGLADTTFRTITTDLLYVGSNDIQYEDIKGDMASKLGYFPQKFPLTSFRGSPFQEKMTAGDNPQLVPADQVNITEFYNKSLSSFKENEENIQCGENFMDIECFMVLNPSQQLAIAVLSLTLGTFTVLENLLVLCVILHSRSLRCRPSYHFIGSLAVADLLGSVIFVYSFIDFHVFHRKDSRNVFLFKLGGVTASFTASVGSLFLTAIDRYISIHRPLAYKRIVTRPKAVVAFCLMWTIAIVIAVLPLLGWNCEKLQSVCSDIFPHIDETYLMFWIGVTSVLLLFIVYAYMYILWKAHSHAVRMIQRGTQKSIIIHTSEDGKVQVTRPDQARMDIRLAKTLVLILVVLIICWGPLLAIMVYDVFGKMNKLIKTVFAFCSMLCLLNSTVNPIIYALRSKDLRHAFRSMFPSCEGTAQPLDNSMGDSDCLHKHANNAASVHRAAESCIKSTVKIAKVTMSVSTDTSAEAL
# Method: The specificity of compound 1 (MJPY1) to act only on glycine receptors was determined. No cross reactivity with other commonly known receptors was detected (FIG. 16 and Table 2). […] Activity is reported in relative luminescence units (RLU) as mean and SEM (n=3).
# C57Bl/6J mice = test: Hargreaves test in C57Bl/6J mice; type: in vivo
# Method: In vivo mouse behavior tests validated the analgesic action of the representative compounds in response to inflammation. Responses of C57Bl/6J mice to the Hargreaves test (Pain, 32:77-88, 1988) were assessed pre- and post-application of compound 1 alone (white circles, application time=0 hours). […] Error bars designate the standard error of the mean (n≥4).
# human α3GlyR = target: T2, human α3GlyR (Homo sapiens, UniProt O75311); test: In vitro functional electrophysiology in Xenopus laevis oocytes; type: cell-based
# T2 construct: expressed in transfected cells; host or cells: Xenopus laevis oocytes
# T2 sequence (O75311 34-464): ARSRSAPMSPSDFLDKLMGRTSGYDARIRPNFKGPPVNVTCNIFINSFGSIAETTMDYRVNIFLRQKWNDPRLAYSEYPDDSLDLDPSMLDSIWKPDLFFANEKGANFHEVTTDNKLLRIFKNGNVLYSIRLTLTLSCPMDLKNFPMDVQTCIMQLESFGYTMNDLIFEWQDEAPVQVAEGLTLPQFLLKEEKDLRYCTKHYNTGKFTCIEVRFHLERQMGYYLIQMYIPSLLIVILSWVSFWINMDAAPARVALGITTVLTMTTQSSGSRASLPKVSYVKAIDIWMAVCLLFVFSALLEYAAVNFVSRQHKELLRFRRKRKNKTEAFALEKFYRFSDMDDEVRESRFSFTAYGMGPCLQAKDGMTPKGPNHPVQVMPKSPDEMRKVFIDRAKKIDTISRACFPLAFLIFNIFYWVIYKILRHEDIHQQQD
# Method: I/Io is calculated as the ratio of the current measured in the presence (I) and absence (Io) of compound 1 or THC at the indicated concentrations. Error bars designate the standard error of the mean (n≥4).
# FIGS. 2A and 2B are bar graphs showing the effect of compound 1 on modulation of human glycine receptor subtypes (α1GlyR, α3GlyR, α1βGlyR, and α3βGlyR) expressed in Xenopus laevis oocytes activated by 2% (FIG. 2A) and 20% (FIG. 2B) maximal effective concentration of glycine. I/Io was calculated as the ratio of the current measured in the presence (I) and absence (Io) of 10 μM compound 1. Error bars designate the standard error of the mean (n≥4).
# The compounds disclosed in Table 1 were assessed for in vitro modulation of human GlyRs. […] The assessed compounds were compounds 1 (3A), 2 (3B), 3 (3C), 4 (3D), 5 (3E), 6 (3F), 7 (3G), and 8 (3H). I/Io was calculated as the ratio of the current measured in the presence (I) and absence (Io) of 10 μM of the indicated compound. […]
# MJPY1 potentiates α3GlyR through binding to the THC-binding site near S296 in the transmembrane domain (TMD). […] Data were recorded at EC2 agonist for the indicated channels and are reported as the ratio of currents in the presence (I) and absence (Io) of 10 μM compound 1 (MJPY1). […]
# DOR = DOR (Homo sapiens, UniProt P41143); test: Radioligand binding assay, off-target profiling; settings: 10 M MJPY1, mean, n = 4
# Sequence of DOR (P41143 whole entry): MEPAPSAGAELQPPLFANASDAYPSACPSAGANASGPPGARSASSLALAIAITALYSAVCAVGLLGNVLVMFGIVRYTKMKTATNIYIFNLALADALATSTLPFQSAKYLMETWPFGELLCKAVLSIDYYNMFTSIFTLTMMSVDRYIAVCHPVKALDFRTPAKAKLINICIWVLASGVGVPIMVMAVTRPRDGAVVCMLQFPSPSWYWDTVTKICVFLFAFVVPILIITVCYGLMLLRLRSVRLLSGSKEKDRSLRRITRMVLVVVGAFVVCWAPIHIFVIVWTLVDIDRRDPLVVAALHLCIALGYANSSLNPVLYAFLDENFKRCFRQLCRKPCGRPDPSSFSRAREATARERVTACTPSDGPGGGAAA
compound,measurement,setting,value
"NC(=O)c1cccc(CNC(=O)c2ccc3c4c(cccc24)CC3)c1 [compound 1, N-[(3-carbamoylphenyl)-methyl]-1,2-dihydroacenaphthylene-5-carboxamide]","tolerance (time to paw withdrawal, first vs second dosing)","CD1 mice; 0.05 mg/kg, CD1 mice, CFA, repeated dose 1.5 or 24 hours after first dose wore off",No tolerance
same,tolerance after repeated dosing (PWL),"CD1 mice; 0.1 mg/kg i.p. once a day for 5 days, CFA on day 4",negligible tolerance
same,response time for paw withdrawal compared to vehicle,"CD1 mice; 0.1 mg/kg, CD1 mice, CFA-induced hyperalgesic conditions",increase in the response time
same,"EC50 for inflammatory pain (% MPE dose response, Hill fit)","CD1 mice; CFA-inflamed left hind paw, 1.5 and 2 hr after intraperitoneal injection (both time points), CD1 mice",~0.030 mg/kg and ~0.03 mg/kg
same,agonist or antagonist activity on CB1 (RLU),CB1,no agonist (top) or antagonist (bottom) activity
same,response time for paw withdrawal,C57Bl/6J mice; maximum CFA-induced hyperalgesic conditions (24 hours post CFA),increase in response time
same,response time for paw withdrawal,C57Bl/6J mice; normal nociceptive conditions,no significant effect
same,potentiation of α3GlyR (I/Io),"human α3GlyR; EC2 agonist, 10 μM compound",potentiates
same,modulation of human GlyRs (I/Io),"human α3GlyR; Xenopus laevis oocytes, 2% maximal effective concentration of glycine",modulated
same,% Inhibition DOR,DOR,7.1%
